From patent publication US7473683B2, “Nonpolar thymidine analogs” (The Board of Trustees of the Leland Stanford Junior …, priority 2005, dated 2009) come the findings set out here.

Series [1] deals with self-complementary strands (5′-XCGCGCG). The series can be described thus: dangling end thermal denaturation studies (base stacking) with self-complementary strands. It is filed as physicochemical. The conditions noted are these: for ΔG°37 (van't Hoff) / ΔH° (van't Hoff) / ΔS° (van't Hoff) / ΔΔG° stacking per base / Tm / ΔG°37 (fits) / ΔTm: dangling residue X in 5′-XCGCGCG; for Tm: 5.0 μM DNA strand, 1M NaCl, 10 mM phosphate buffer (pH 7.0), 0.1 mM EDTA, 280 nm; for ΔG°37 (fits): curve fits; for ΔTm: versus duplex with no dangling residue. How it is done:
(§1) Thermal Denaturation Studies. After the samples were prepared in melting buffer (1M NaCl, 10 mM phosphate buffer (pH 7.0) with 0.1 mM EDTA), they were heated to 95° C. and allowed to slowly cool at a rate of 1° C./min to 5° C. The melting studies were carried out in Teflon-stoppered 1 cm path length quartz cells on a Varian Cary 1 UV-vis spectophotometer equipped with thermoprogrammer. Absorbance was monitored at 280 nm for stacking and at 260 nm for base pairing. […] The data were analyzed by the melt curve processing program, MeltWin v. 3.0. Melting temperatures (Tm) were determined by computer-fit of the first derivative of absorbance with respect to 1/T. Uncertainty in Tm is estimated at ±0.5° C. based on repetitions of experiments. Free-energy values were derived by two methods: (1) computer-fitting the denaturation data with an algorithm employing linear sloping baselines, using the two-state approximation for melting. Fits were excellent, with χ^−2 values of 10^−6 or better. (2) Van't Hoff thermodynamic parameters were derived from linear plots of 1/Tm vs In[CT] by measuring Tm as a function of concentration.
Sequence Design. We incorporated all five phosphoramidites into three new sequence contexts each for further study of pairing and stacking properties. The first is a self-complementary sequence designed to form a hexamer duplex, with the nonnatural base analogue overhanging (dangling) at the 5′ ends (Table 2). This same sequence context has been used previously in several studies of DNA base stacking. The second and third contexts comprise a pair of 12mer sequences that form duplexes with well-behaved two-state behavior. One strand is pyrimidine-rich, while the other is purine-rich; we substituted each analogue at a central position of each strand to test two widely varied sequence contexts for pairing effects.
Base Stacking. DNA base stacking stability has been correlated with the size of compounds when mono-, bi-, tri-, and tetra-cyclic base analogues were compared. To test this with the present series, which varies in size by a smaller amount, we examined the short self-complementary oligonucleotides by thermal denaturation experiments. The self-complementary duplexes contained the modified nucleosides as a 5′ overhanging base.

The test system of series [2] is normal and bypass (SOS-induced) polymerases in E. coli. The series can be described thus: bacterial replication assay: bypass efficiency and fidelity of analogs in single-stranded M13 vector passaged through E. coli. The conditions noted are these: for single-base deletions: diminished when bypass polymerases were induced; for difference between the match and mismatch efficiency, increase in cells expressing induced bypass polymerases: SOS-induced bypass polymerases. It counts as cell-based. The text has this:
Bacterial replication assay. The assay for bypass efficiency fidelity is briefly described in the text.
To ascertain the influence of sub-Angstrom size increases on the template coding properties of the T analogs in vivo, we ligated oligonucleotides containing each analog into a single-stranded M13 vector, which were then passaged through E. coli and scored for bypass efficiency and mutagenesis (fidelity) as described. We chose E. coli deficient in AlkB to eliminate the possibility of metabolization of the H analog, which was subsequently found to have no influence on the results when compared with AlkB-proficient cells. Bypass experiments shown in FIG. 7 were performed in a competitive manner, and efficiencies were evaluated by PCR-based quantitation of successfully replicated progeny DNA. SOS-induction of bypass polymerases by prior irradiation of E. coli with ultraviolet light increased trans-analog synthesis approximately 2-fold for all thymine analogs. […] It is noteworthy that the difference between the match and mismatch efficiency increased in cells expressing induced bypass polymerases: L (0.2), B (8.0), I (17.4), implying higher fidelity for the larger isosteres for bypass polymerases, which may contain larger or looser active sites.

In series [3] the test system is DNA Pol I (Klenow fragment, exo-). The series can be described thus: steady-state kinetics of single nucleotide insertions, thymidine analogues in the template. It is filed as biochemical, E. coli. The conditions noted are these: for Km / Vmax: 37° C.; for Vmax: 10 mM MgCl2, pH 7.5, normalized to lowest enzyme concentration; for rel. efficiency: relative to insertion of dATP opposite T. How it is done:
In vitro steady-state kinetics. As polymerase substrates we used 28 mer/23 mer template-primer duplexes having the sequence (5′-ACT GXT CTCCCTATAGTGAGTCGTATTA [SEQ ID NO:1])·(5′-TAATACGACTCACTATAGGGAGA [SEQ ID NO:2]). Kinetics were measured at 37° C. in a buffer containing 10 mM Mg^2+. The primer was 5′ end-labeled and was extended by the polymerase in the presence of a single dNTP species over varied concentration and time. Products of single nucleotide insertions were resolved from unreacted primer by 20% denaturing gel electrophoresis, and were quantitated by autoradiography. Details of the kinetics experiments are given in the Supporting Data.
We chose DNA polymerase I (Klenow fragment, exonuclease-deficient) as an ideal candidate for initial study, as it is enzymatically well-characterized among replicative enzymes, and yet is relatively small and acts as a single subunit. We carried out kinetics studies of single nucleotide insertions in the steady state, using a gel electrophoresis-based assay.
Data for single nucleotide insertion kinetics in the steady-state. The enzyme was the Klenow fragment of DNA pol I from E. coli (exonuclease deficient). Methods are as described above.

The test system of series [4] is 12-base pair duplex 5′-CTTTTCXTTCTT / 3′-GAAAAGXAAGAA
The series can be described thus: thermal denaturation, base pairing near the center of a 12-base pair duplex. It is filed as physicochemical. The conditions noted are these: pyrimidine- or purine-rich strand, compared to T. The protocol:
as §1
Sequence Design. We incorporated all five phosphoramidites into three new sequence contexts each for further study of pairing and stacking properties. […]

Setting [5] is: insertion of dATP opposite template base.
Where [6] appears, read: insertion of dCTP opposite template base.
Where [7] appears, read: insertion of dGTP opposite template base.
The mark [8] stands for this setting: insertion of dTTP opposite template base.

In the case of 2,4-diHydrogentoluene, the “stabilization of the duplex by 5′ overhanging base (stacking)” value in series [1] (compared with natural thymidine in the same position) is “least stabilizing of the series”. Besides, in series [1], the “ΔG°37 (van't Hoff)” value is -9.7 ± 0.1 kcal/mol, the “ΔH° (van't Hoff)” value is -55.4 ± 2.0 kcal/mol, the “ΔS° (van't Hoff)” value was −147 ± 6 cal/K · mol and the “ΔΔG° stacking per base” value was determined as 0.95 kcal/mol. Also, in series [1], the melting temperature (Tm) turned out to be 49.7 °C, the “ΔG°37 (fits)” value was -9.7 ± 0.0 kcal/mol and the ΔTm came out at 11.1 °C. Further, in series [2] (E. coli), the single-base deletions entry is recorded as “evident”. Moreover, in series [3] (setting [5]), the Km was found to be 20 ± 2 µM, the Vmax was 0.90 ± 0.18 % · m in^−1 and the rel. efficiency was 3.5 × 10^−3. Further, in series [3] (setting [6]), the Michaelis-Menten constant (Km) is 100 ± 60 µM, the Vmax was 0.031 ± 0.006 % · m in^−1 and the rel. efficiency was 2.4 × 10^−5. In series [3] (setting [7]), the Michaelis-Menten constant (Km) turned out to be 600 ± 210 µM, the Vmax came out at 0.025 ± 0.007 % · m in^−1 and the rel. efficiency is recorded as 3.2 × 10^−6. Further, in series [3] (setting [8]), the Km came out at 61 ± 37 µM, the Vmax came out at 0.062 ± 0.022 % · m in^−1 and the rel. efficiency is 7.7 × 10^−5.

On to `Cc1ccc(Br)cc1Br` [B, 2,4-dibromotoluene], for which, in series [1], the “ΔG°37 (van't Hoff)” value is -10.8 ± 0.1 kcal/mol, the “ΔH° (van't Hoff)” value is -62.0 ± 2.1 kcal/mol, the “ΔS° (van't Hoff)” value was −165 ± 7 cal/K · mol and the “ΔΔG° stacking per base” value is on record as 1.50 kcal/mol. In series [1], the Tm is 54.3 °C, the “ΔG°37 (fits)” value is -10.2 ± 0.0 kcal/mol and the shift in melting temperature (ΔTm) stood at 15.7 °C. The “difference between the match and mismatch efficiency, increase in cells expressing induced bypass polymerases” value in series [2] (E. coli) is on record as 8.0. Besides, in series [3] (setting [5]), the Km was determined as 21 ± 5 µM, the Vmax is 12 ± 1 % · m in^−1 and the rel. efficiency is 4.4 × 10^−2. For the same molecule, in series [3] (setting [6]), the Michaelis-Menten constant (Km) is 79 ± 33 µM, the Vmax stood at 0.038 ± 0.005 % · m in^−1 and the rel. efficiency is given as 3.7 × 10^−5. Also, in series [3] (setting [7]), the Km was found to be 220 ± 100 µM, the Vmax came out at 0.023 ± 0.005 % · m in^−1 and the rel. efficiency is listed as 7.7 × 10^−6. Moreover, in series [3] (setting [8]), the Km is 37 ± 12 µM, the Vmax is listed as 0.20 ± 0.03 % · m in^−1 and the rel. efficiency is given as 4.2 × 10^−4.

As to `Cc1ccc(I)cc1I` [I, 2,4-diiodotoluene], in series [1], the “ΔG°37 (van't Hoff)” value was -10.4 ± 0.2 kcal/mol, the “ΔH° (van't Hoff)” value is -55.7 ± 4.4 kcal/mol, the “ΔS° (van't Hoff)” value was −146 ± 14 cal/K · mol and the “ΔΔG° stacking per base” value is given as 1.30 kcal/mol. In addition, in series [1], the Tm was determined as 53.8 °C, the “ΔG°37 (fits)” value was -10.2 ± 0.1 kcal/mol and the ΔTm was 15.2 °C. In series [2] (E. coli), the “difference between the match and mismatch efficiency, increase in cells expressing induced bypass polymerases” value amounted to 17.4; the single-base deletions result is “evident”. The “pairing stability opposite natural bases” value in series [4] is on record as “least destabilizing”. In series [3] (setting [5]), the Michaelis-Menten constant (Km) turned out to be 26 ± 11 µM, the Vmax was found to be 1.3 ± 0.2 % · m in^−1 and the rel. efficiency is given as 3.8 × 10^−3. Besides, in series [3] (setting [6]), the Michaelis-Menten constant (Km) amounted to 20 ± 8 µM, the Vmax is 0.036 ± 0.001 % · m in^−1 and the rel. efficiency was 1.4 × 10^−4. In addition, in series [3] (setting [7]), the Michaelis constant (Km) was 58 ± 18 µM, the Vmax amounted to 0.017 ± 0.001 % · m in^−1 and the rel. efficiency was 2.2 × 10^−5. Also, in series [3] (setting [8]), the Michaelis-Menten constant (Km) stood at 48 ± 39 µM, the Vmax came out at 0.085 ± 0.037 % · m in^−1 and the rel. efficiency is reported as 1.4 × 10^−4.

In the case of `Cc1ccc(Cl)cc1Cl` [L, 2,4-dichlorotoluene], in series [1], the “ΔG°37 (van't Hoff)” value is -10.0 ± 0.1 kcal/mol, the “ΔH° (van't Hoff)” value was -52.7 ± 1.2 kcal/mol, the “ΔS° (van't Hoff)” value was −138 ± 4 cal/K · mol and the “ΔΔG° stacking per base” value was found to be 1.10 kcal/mol. In addition, in series [1], the melting temperature (Tm) was 52.3 °C, the “ΔG°37 (fits)” value was -10.1 ± 0.0 kcal/mol and the thermal shift (ΔTm) was 13.7 °C. In series [2] (E. coli), the “difference between the match and mismatch efficiency, increase in cells expressing induced bypass polymerases” value worked out at 0.2. Besides, the replication bypass efficiency entry in series [2] (E. coli, normal and bypass polymerases, competitive, PCR-based quantitation of progeny DNA) is recorded as “maximum bypass”. The “replication fidelity in E. coli” value in series [2] (normal and bypass polymerases) was “maximal in vivo fidelity”. Moreover, in series [3] (setting [5]), the Km amounted to 3.3 ± 2.8 µM, the Vmax is 27 ± 5 % · m in^−1 and the rel. efficiency is recorded as 6.3 × 10^−1. Besides, in series [3] (setting [6]), the Michaelis-Menten constant (Km) came out at 25 ± 13 µM, the Vmax was determined as 0.021 ± 0.003 % · m in^−1 and the rel. efficiency was 6.5 × 10^−5. In series [3] (setting [7]), the Michaelis-Menten constant (Km) is 190 ± 90 µM, the Vmax is 0.029 ± 0.007 % · m in^−1 and the rel. efficiency is 1.2 × 10^−5. Moreover, in series [3] (setting [8]), the Km stood at 18 ± 18 µM, the Vmax came out at 0.13 ± 0.04 % · m in^−1 and the rel. efficiency is 5.5 × 10^−4.

The Tm is the temperature at which the thermal transition is half complete. In general, ΔTm refers to the shift of the melting midpoint relative to a reference. The Km is the concentration of substrate that gives half-maximal velocity.
